Laboratory results from patent publication US20080207446A1, “Use of Phenylsemicarbazones for Seed Treatment” (BASF Aktiengesellschaft, priority 2005, published 2008).

What was measured:
Type in all cases: in vivo
Psila rosae [1] = assay: Long-term effect of carrot seed coating against Psila rosae; details: for Percentage of plants infested with Psila rosae (long-term): carrot seed coating 100 ml/unit; for Persistence of the protective effect of seed treatment: carrot seed coating, conclusion from Table 3
Procedure: The objective of this trial was the direct comparison of metaflumizone with the market standard Birlane™ at 100 ml product per unit of seed. Activity evaluation considered the residual activity of the products up to 124 days after application.
Carrot seeds were coated or left uncoated, sowed and raised as described in Example 2 and subjected to Psila rosae infestation at an approximate density of 300 to 400 insects per trap at days 46 to 53 after sowing. At days 82, 96, 110 and 124, respectively, 100 plants per field were examined for maggot infestation.

Psila rosae [2] = assay: Short-term protection of carrots against Psila rosae by seed coating; details: for Reduction of early damage by maggots: conclusion from Table 2
From the text: In order to determine the efficacy of seed coating against dipteran larvae, carrot seeds were coated with two different concentrations of metaflumizone, Birlane™ or left untreated, then sowed and raised as described in Example 1. At day 35 after sowing, the plants were exposed to infestation by Psila rosae, which was monitored by adult trap catches. 300 to 400 insects per trap indicated fair infestation pressure. At days 35 and 91, respectively, 100 plants per field were examined for maggot infestation.
All test products were applied by seed coating of carrot seeds. Birlane™ was applied according to label recommendations for carrots. Metaflumizone was applied at 50 ml and 100 ml formulated product per seed unit, respectively. The assessments of carrot rooffly damage were conducted 35 and 91 daysafter sowing. Infestation was evaluated by assessing 100 carrot roots per treatment, and the number of infested plants was recorded. The figures included in the table show the percentage of damaged plants by treatment.

Psila rosae [3] = assay: Effective dosage of metaflumizone on carrot seeds against Psila rosae
From the text: In order to quantify the effect of metaflumizone against maggots, carrot seeds were coated with different concentrations of metaflumizone, with Birlane™ or left uncoated, then sowed and raised as described in the above Examples.

carrot seeds = assay: Absence of phytotoxicity: sprouting of treated carrot seeds; details: for Influence on the viability of carrot seeds: seed treatment, conclusion from Table 1
Procedure: To determine the effect of seed treatment on the viability of seeds and sprouting plants, carrot seeds were either treated with metaflumizone, coated with the insecticide chlorfenvinphos (commercially available under, and herein referred to by, the name Birlane™) or left untreated, then sowed and raised under controlled environmental conditions. At day 20 and day 43, respectively, the percentage of seeds which had sprouted was assessed.

Helix hortensis = assay: Greenhouse snail trial on sprayed lettuce; details: lettuce sprayed with 240 g active ingredient per ha (240 g/l suspension concentrate)
Procedure: For this example, a 240 g/l suspension concentrate of a compound I with R^1=trifluoromethyl in meta position, R^2=cyano in para position and R^3=trifluoromethoxy in para position was used with an application rate of 240 gram active ingredient per ha.
The trial was carried out in the greenhouse under practical conditions in sandy soil. Three lettuce plants, variety Filipo, growth stage 45-46, were used as plot size. The lettuce was sprayed with a solution of the above mentioned compound at a rate of 240 gram active ingredient per hectare with 500 l/ha water. For spraying was a single Teejet® nozzle, model 8002 (from Spraying System Mobile Systems Division, Wheaton, Ill., USA), at 3 atmosphere pressure used.
After the spray application, the plots were covered by net cages (diameter 40 cm) and 20 snails (sexually mature individuals of Helix hortensis) were added to every plot.
Also an estimation of eating damages was recorded.

[4] = 4 days after placing the snails

N#Cc1ccc(CC(=NNC(=O)Nc2ccc(OC(F)(F)F)cc2)c2cccc(C(F)(F)F)c2)cc1 (racemic) [metaflumizone, 2-[2-(4-cyanophenyl)-1-[3-(trifluoromethyl)phenyl]ethylidene]-N-[4-(trifluoromethoxy)phenyl]hydrazinecarboxamide]
Percentage of plants infested with Psila rosae (long-term) (Psila rosae [1]; Day 82): 2%
Percentage of plants infested with Psila rosae (long-term) (Psila rosae [1]; Day 96): 4%
Percentage of plants infested with Psila rosae (long-term) (Psila rosae [1]; Day 110): 10%
Percentage of plants infested with Psila rosae (long-term) (Psila rosae [1]; Day 124): 22%
Persistence of the protective effect of seed treatment (Psila rosae [1]): gradually wore off after 3-4 months
Percentage of plants infested with Psila rosae (Psila rosae [2]; carrot seed coating 50 ml/unit, Day 35 after sowing): 3%
Percentage of plants infested with Psila rosae (Psila rosae [2]; carrot seed coating 50 ml/unit, Day 91 after sowing): 12%
Percentage of plants infested with Psila rosae (Psila rosae [2]; carrot seed coating 100 ml/unit, Day 35 after sowing): 7%
Percentage of plants infested with Psila rosae (Psila rosae [2]; carrot seed coating 100 ml/unit, Day 91 after sowing): 10%
Reduction of early damage by maggots (Psila rosae [2]; carrot seed coating): effective in reducing early damage by maggots
Prevention of damage to seedlings compared with Birlane (Psila rosae [2]; carrot seed coating, during the first weeks): slightly more efficient than Birlane™
Effective dosage of metaflumizone in the treatment of carrot seeds (percentage) (Psila rosae [3]; 25 ml/unit, Day 70): 2%
Effective dosage of metaflumizone in the treatment of carrot seeds (percentage) (Psila rosae [3]; 25 ml/unit, Day 97): 33%
Effective dosage of metaflumizone in the treatment of carrot seeds (percentage) (Psila rosae [3]; 25 ml/unit, Day 116): 73%
Effective dosage of metaflumizone in the treatment of carrot seeds (percentage) (Psila rosae [3]; 50 ml/unit, Day 70): 1%
Effective dosage of metaflumizone in the treatment of carrot seeds (percentage) (Psila rosae [3]; 50 ml/unit, Day 97): 24%
Effective dosage of metaflumizone in the treatment of carrot seeds (percentage) (Psila rosae [3]; 50 ml/unit, Day 116): 61%
Effective dosage of metaflumizone in the treatment of carrot seeds (percentage) (Psila rosae [3]; 75 ml/unit, Day 70): 0%
Effective dosage of metaflumizone in the treatment of carrot seeds (percentage) (Psila rosae [3]; 75 ml/unit, Day 97): 14%
Effective dosage of metaflumizone in the treatment of carrot seeds (percentage) (Psila rosae [3]; 75 ml/unit, Day 116): 55%
Effective dosage of metaflumizone in the treatment of carrot seeds (percentage) (Psila rosae [3]; 100 ml/unit, Day 70): 0%
Effective dosage of metaflumizone in the treatment of carrot seeds (percentage) (Psila rosae [3]; 100 ml/unit, Day 97): 29%
Effective dosage of metaflumizone in the treatment of carrot seeds (percentage) (Psila rosae [3]; 100 ml/unit, Day 116): 55%
Percentage of growing plants (carrot seeds; carrot, in vivo, 20 day): 42%
Percentage of growing plants (carrot seeds; carrot, in vivo, 43 day): 47%
Influence on the viability of carrot seeds (carrot seeds): no significant influence

CCOP(=O)(OCC)O/C(=C\Cl)c1ccc(Cl)cc1Cl [Birlane ™, chlorfenvinphos, reference compound]
Percentage of plants infested with Psila rosae (long-term) (Psila rosae [1]; Day 82): 0.5%
Percentage of plants infested with Psila rosae (long-term) (Psila rosae [1]; Day 96): 2%
Percentage of plants infested with Psila rosae (long-term) (Psila rosae [1]; Day 110): 8%
Percentage of plants infested with Psila rosae (long-term) (Psila rosae [1]; Day 124): 11%
Persistence of the protective effect of seed treatment (Psila rosae [1]): gradually wore off after 3-4 months
Percentage of plants infested with Psila rosae (Psila rosae [2]; carrot seed coating according to label recommendations, Day 35 after sowing): 9%
Percentage of plants infested with Psila rosae (Psila rosae [2]; carrot seed coating according to label recommendations, Day 91 after sowing): 12%
Reduction of early damage by maggots (Psila rosae [2]; carrot seed coating): effective in reducing early damage by maggots
Effective dosage of metaflumizone in the treatment of carrot seeds (percentage) (Psila rosae [3]; Birlane, dose not given, Day 70): 0.1%
Effective dosage of metaflumizone in the treatment of carrot seeds (percentage) (Psila rosae [3]; Birlane, dose not given, Day 97): 23%
Effective dosage of metaflumizone in the treatment of carrot seeds (percentage) (Psila rosae [3]; Birlane, dose not given, Day 116): 61%
Percentage of growing plants (carrot seeds; carrot seeds, Day 20, coated with Birlane): 52%
Percentage of growing plants (carrot seeds; carrot seeds, Day 43, coated with Birlane): 56%
Influence on the viability of carrot seeds (carrot seeds): no significant influence

N#Cc1ccc(C/C(=N/NC(=O)Nc2ccc(OC(F)(F)F)cc2)c2cccc(C(F)(F)F)c2)cc1 [metaflumizone, 2-[2-(4-cyanophenyl)-1-[3-(trifluoromethyl)phenyl]ethylidene]-N-[4-(trifluoromethoxy)phenyl]hydrazinecarboxamide]
snails inactive (Helix hortensis; 1 day after placing the snails): 47%
snails inactive (Helix hortensis; 2 days after placing the snails): 63%
snails dead (Helix hortensis; [4]): 71%
snails inactive (further to the dead) (Helix hortensis; [4]): 12%
